Reference: patent US20240197938A1, “ANTIMICROBIAL COMPOUNDS BASED ON GLUCOHEPTONIC ACIDS AND THEIR SALTS” (HARCROS CHEMICALS, INC., priority 2021, published 2024)

How the values were obtained:
Candida albicans = assay: ASTM E2315-16 Time-Kill Procedure; assay type: cell-based; details: 30 seconds
Method: (§1) Select compounds were tested for antimicrobial activity using ASTM method […]-16 (Standard Guide for Assessment of Antimicrobial Activity using a Time-Kill Procedure). Six microbes were tested: Candida albicans, Staphylococcus aureus, Staphylococcus epidermidis. Escherichia coli, Salmonella abony, and Listeria monocytogenes. Four chlorhexidine salts were tested: chlorhexidine di-α-glucoheptonate (Sample G), chlorhexidine di-β73-glucoheptonate (Sample H), chlorhexidine digluconate (Sample I), and chlorhexidine diacetate (Sample P). Both chlorhexidine diglucoheptonate salts were prepared at a 2:1 molar ratio of glucoheptonic acid to chlorhexidine. Dilutions of each salt were prepared using sterile water (20-30 ppm hardness), to achieve the desired wt. % concentration. Two glucoheptonic acids were evaluated for antimicrobial activity against the same six microbes as Example 13. Sample L was α-glucoheptonic acid. Sample M was β73-glucoheptonic acid. Benzalkonium salts were also tested using the same procedure as set forth in Example 13. The samples were benzalkonium chloride (C12-C16) (Sample C), benzalkonium chloride (C12-C14) (Sample D), benzalkonium chloride in combination with a stoichiometric amount of α-glucoheptonate (Sample F), and benzalkonium chloride in combination with a molar excess of α-glucoheptonate (Sample N). Sample F was prepared by mixing and extensively heating a stoichiometric quantity (1:1) of sodium α-glucoheptonate with benzalkonium chloride, typified by the C12-14 alkyl chain. Sample N was prepared by simply blending benzalkonium chloride, typified by the C12-16 chain, with a molar excess of sodium α-glucoheptonate (1.6:1). Both Samples F and N contain sodium chloride.

[1] = tested on: Staphylococcus epidermidis; assay: ASTM E2315-16 Time-Kill Procedure; assay type: cell-based; details: 30 seconds
Method: as §1

Staphylococcus aureus = assay: ASTM E2315-16 Time-Kill Procedure; assay type: cell-based; details: 30 seconds
Method: as §1

Escherichia coli = assay: ASTM E2315-16 Time-Kill Procedure; assay type: cell-based; details: 30 seconds
Method: as §1, with “concentration.” for “concentration. Two glucoheptonic acids were evaluated for antimicrobial activity against the same six microbes as Example 13. Sample L was α-glucoheptonic acid. Sample M was β73-glucoheptonic acid.”

Listeria monocytogenes = assay: ASTM E2315-16 Time-Kill Procedure; assay type: cell-based; details: 30 seconds
Method: as §1, with “concentration.” for “concentration. Two glucoheptonic acids were evaluated for antimicrobial activity against the same six microbes as Example 13. Sample L was α-glucoheptonic acid. Sample M was β73-glucoheptonic acid.”

Salmonella abony = assay: ASTM E2315-16 Time-Kill Procedure; assay type: cell-based; details: 30 seconds
Method: as §1, with “concentration.” for “concentration. Two glucoheptonic acids were evaluated for antimicrobial activity against the same six microbes as Example 13. Sample L was α-glucoheptonic acid. Sample M was β73-glucoheptonic acid.”

[2] = tested on: all microbes (Candida albicans, Staphylococcus aureus, Staphylococcus epidermidis, Escherichia coli, Salmonella abony, Listeria monocytogenes); assay: ASTM E2315-16 Time-Kill Procedure, average across all microbes; assay type: cell-based; details: for Log Reduction, Average, all microbes: 30 seconds; for average Log Reduction (LR) in microbial population across all microbes: 10 minutes
Method: Select compounds were tested for antimicrobial activity using ASTM method […]-16 (Standard Guide for Assessment of Antimicrobial Activity using a Time-Kill Procedure). Six microbes were tested: Candida albicans, Staphylococcus aureus, Staphylococcus epidermidis. Escherichia coli, Salmonella abony, and Listeria monocytogenes. Four chlorhexidine salts were tested: chlorhexidine di-α-glucoheptonate (Sample G), chlorhexidine di-β73-glucoheptonate (Sample H), chlorhexidine digluconate (Sample I), and chlorhexidine diacetate (Sample P). Both chlorhexidine diglucoheptonate salts were prepared at a 2:1 molar ratio of glucoheptonic acid to chlorhexidine. Dilutions of each salt were prepared using sterile water (20-30 ppm hardness), to achieve the desired wt. % concentration. Samples G, H, I, and P were also tested at a concentration of 0.60 wt % active and evaluated for the average Log Reduction in microbial population at 10 minutes, across all microbes. A further test was conducted at a concentration of 1.0 wt % active and evaluated for the average Log Reduction in microbial population at 10 minutes, across all microbes. Benzalkonium salts were also tested using the same procedure as set forth in Example 13. The samples were benzalkonium chloride (C12-C16) (Sample C), benzalkonium chloride (C12-C14) (Sample D), benzalkonium chloride in combination with a stoichiometric amount of α-glucoheptonate (Sample F), and benzalkonium chloride in combination with a molar excess of α-glucoheptonate (Sample N). Sample F was prepared by mixing and extensively heating a stoichiometric quantity (1:1) of sodium α-glucoheptonate with benzalkonium chloride, typified by the C12-14 alkyl chain. Sample N was prepared by simply blending benzalkonium chloride, typified by the C12-16 chain, with a molar excess of sodium α-glucoheptonate (1.6:1). Both Samples F and N contain sodium chloride. A further antimicrobial test was conducted to determine the log reduction at 10 minutes. Samples C, D, F, and N are as defined above.

[3] = Bubble pressure tensiometry (dynamic surface tension, calculated CMC); assay type: physicochemical; details: sub-CMC, CMC and super-CMC concentrations; FIGS. 1-7
Method: Dynamic surface tensions of certain formulations were measured using a KRÜSS BP100 BPT Mobile bubble pressure tensiometer. Samples of the solution of Example 7 were tested by adding the test solution to a glass dish and lowering the disposable capillary tip and temperature probe into the solution. The dynamic setting was selected, and the instrument was set to collect 30 data points, the bubble age increasing from about 10 ms to about 30,000 ms.
Bubble tensiometry was used to calculate the Critical Micelle Concentration (CMC) value for each of the solutions.
FIG. 1 presents a comparison of the bubble age to surface tension for RM14A at CMC, sub-CMC, and super-CMC concentrations. FIG. 2 presents a comparison of the bubble age to surface tension for RM14B at CMC, sub-CMC, and super-CMC concentrations. FIG. 3 presents a comparison of the bubble age to surface tension for RM14C at CMC, sub-CMC, and super-CMC concentrations. FIG. 4 presents a comparison of the bubble age to surface tension for RM12A, RM13A, RM14A, and RM15A at super-CMC concentrations. FIG. 5 presents a comparison of the bubble age to surface tension for RM12A, RM13A, RM14A, and RM15A at CMC concentrations. FIG. 6 presents a comparison of the bubble age to surface tension for RM12A, RM13A, RM14A, and RM15A at CMC concentrations. FIG. 7 presents a comparison of bubble age to surface tension for RM12A, RM13A, RM14A, and RM15A at sub-CMC concentrations.

Q: What does the source list for `N=C(NCCCCCCNC(=N)NC(=N)Nc1ccc(Cl)cc1)NC(=N)Nc1ccc(Cl)cc1.O=C(O)C(O)C(O)C(O)C(O)C(O)CO.O=C(O)C(O)C(O)C(O)C(O)C(O)CO` [Sample H, chlorhexidine di-β73-glucoheptonate]?
A: Log Reduction (Candida albicans; 0.20% (wt. %)): 4.26; Log Reduction (Candida albicans; 0.60% (wt. %)): 4.56; Log Reduction (Candida albicans; 1.00% (wt. %)): 4.51; Log Reduction ([1]; 0.20% (wt. %)): 1.47; Log Reduction ([1]; 0.60% (wt. %)): 2.65; Log Reduction ([1]; 1.00% (wt. %)): 3.75; Log Reduction (Staphylococcus aureus; 0.20% (wt. %)): 0.76; Log Reduction (Staphylococcus aureus; 0.60% (wt. %)): 3.19; Log Reduction (Staphylococcus aureus; 1.00% (wt. %)): 4.33; Log Reduction (Escherichia coli; 0.20% (wt. %)): 2.39; Log Reduction (Escherichia coli; 0.60% (wt. %)): 2.87; Log Reduction (Escherichia coli; 1.00% (wt. %)): 3.77; Log Reduction (Listeria monocytogenes; 0.20% (wt. %)): 1.57; Log Reduction (Listeria monocytogenes; 0.60% (wt. %)): 4.99; Log Reduction (Listeria monocytogenes; 1.00% (wt. %)): 5.27; Log Reduction (Salmonella abony; 0.20% (wt. %)): 3.14; Log Reduction (Salmonella abony; 0.60% (wt. %)): 3.26; Log Reduction (Salmonella abony; 1.00% (wt. %)): 3.44; Log Reduction, Average, all microbes ([2]; 0.20% (wt. %)): 2.27; Log Reduction, Average, all microbes ([2]; 0.60% (wt. %)): 3.59; Log Reduction, Average, all microbes ([2]; 1.00% (wt. %)): 4.18; average Log Reduction (LR) in microbial population across all microbes ([2]; 0.60 wt % active): 5.25; average Log Reduction (LR) in microbial population across all microbes ([2]; 1.0 wt % active): 5.51; performance in the Time-Kill Test ([2]; at lower concentrations): better performance than the di-α-glucoheptonate salt; surface tension versus bubble age (rate and magnitude of reduction) [3]: fall more rapidly and to a lower value than either the di-α-glucoheptonate or the comparative digluconate salt
